Measured values taken from ChEMBL document CHEMBL6120985, “Discovery of a potent PARP1 PROTAC as a chemosensitizer for the treatment of colorectal cancer” (Eur J Med Chem, 2025).
The source made the active and inactive calls. The rule behind the calls is not given here.

Columns and labels:
[1] = target: T1, Protein cereblon/Poly [ADP-ribose] polymerase 1 (Homo sapiens, UniProt P09874+Q96SW2); test: PROTAC activity at CRBN/PARP1 in human HCT-116 cells assessed as degradation of PARP1 at upto 10 uM measured after 24 hrs relative to control; format: cell-based
Target sequence in this assay (P09874 2-1014 limits assumed): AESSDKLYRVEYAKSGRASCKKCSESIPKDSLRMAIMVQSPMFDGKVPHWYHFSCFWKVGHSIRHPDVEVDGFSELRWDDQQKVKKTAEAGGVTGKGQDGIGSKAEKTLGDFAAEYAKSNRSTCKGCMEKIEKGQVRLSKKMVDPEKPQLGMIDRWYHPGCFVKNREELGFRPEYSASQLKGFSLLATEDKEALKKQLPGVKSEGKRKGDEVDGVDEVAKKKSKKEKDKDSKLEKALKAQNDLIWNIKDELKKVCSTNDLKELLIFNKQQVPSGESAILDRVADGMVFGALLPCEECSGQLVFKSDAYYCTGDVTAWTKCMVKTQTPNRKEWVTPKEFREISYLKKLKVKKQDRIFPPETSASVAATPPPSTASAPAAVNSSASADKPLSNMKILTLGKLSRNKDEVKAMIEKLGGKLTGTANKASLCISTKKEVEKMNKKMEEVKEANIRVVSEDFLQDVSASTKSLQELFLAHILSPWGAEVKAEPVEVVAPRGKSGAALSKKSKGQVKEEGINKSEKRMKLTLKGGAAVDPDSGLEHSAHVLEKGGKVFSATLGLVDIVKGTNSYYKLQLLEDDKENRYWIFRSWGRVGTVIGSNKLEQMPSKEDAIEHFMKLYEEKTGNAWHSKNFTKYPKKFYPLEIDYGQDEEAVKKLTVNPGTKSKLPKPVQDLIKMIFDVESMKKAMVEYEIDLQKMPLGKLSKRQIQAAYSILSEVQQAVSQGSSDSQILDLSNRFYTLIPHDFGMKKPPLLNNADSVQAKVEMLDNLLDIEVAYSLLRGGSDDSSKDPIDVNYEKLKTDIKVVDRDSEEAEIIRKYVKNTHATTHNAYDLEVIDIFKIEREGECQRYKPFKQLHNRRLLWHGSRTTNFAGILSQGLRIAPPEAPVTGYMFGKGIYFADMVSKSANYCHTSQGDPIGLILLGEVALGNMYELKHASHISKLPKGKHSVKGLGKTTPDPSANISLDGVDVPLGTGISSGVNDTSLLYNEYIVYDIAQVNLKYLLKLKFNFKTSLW
Target sequence in this assay (Q96SW2 whole entry partner): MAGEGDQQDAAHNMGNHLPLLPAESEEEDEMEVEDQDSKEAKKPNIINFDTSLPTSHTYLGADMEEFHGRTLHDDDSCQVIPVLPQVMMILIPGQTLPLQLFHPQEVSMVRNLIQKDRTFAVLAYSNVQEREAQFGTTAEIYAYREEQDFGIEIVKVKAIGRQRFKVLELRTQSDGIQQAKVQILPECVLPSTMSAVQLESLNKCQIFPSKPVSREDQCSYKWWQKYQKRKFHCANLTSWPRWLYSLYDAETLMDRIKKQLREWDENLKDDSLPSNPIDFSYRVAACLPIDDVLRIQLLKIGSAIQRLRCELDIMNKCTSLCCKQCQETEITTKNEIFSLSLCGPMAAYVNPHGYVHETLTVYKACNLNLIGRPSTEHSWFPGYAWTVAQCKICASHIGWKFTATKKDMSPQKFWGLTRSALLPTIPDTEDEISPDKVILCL

[2] = tested on: HCT-116; test: Synergistic antiproliferative activity against human HCT-116 cells assessed as combination index at 4 uM measured after 72 hrs in presence of 2.5 nM of SN-38 by CCK-8 method; format: functional
[3] = tested on: HCT-116; test: Induction of apoptosis in human HCT-116 cells assessed as late apoptotic cells at 1 uM measured after 72 hrs in presence of SN-38 by annexin V/FITC and PI staining based flow cytometry analysis (reference value: 6.80%); format: functional
[4] = tested on: SW-620; test: Potency index, ratio of SK-575 IC50 to test compound IC50 for cytotoxicity against human SW620 cells assessed as inhibition of cell growth measured after 72 hrs by CCK-8 method; format: functional
[5] = tested on: HCT-116; test: Induction of apoptosis in human HCT-116 cells assessed as viable cells at 1 uM measured after 72 hrs by annexin V/FITC and PI staining based flow cytometry analysis (reference value: 89.6%); format: functional; settings: read-out: Activity
[6] = tested on: HCT-116; test: Synergistic antiproliferative activity against human HCT-116 cells assessed as combination index at 0.5 uM measured after 72 hrs in presence of 2.5 nM of SN-38 by CCK-8 method; format: functional
[7] = tested on: HCT-116; test: Effect on BRCA protein level in human HCT-116 cells at 1 uM in presence of SN-38 by Western blot analysis; format: functional, cell-based
[8] = tested on: HCT-116; test: Antagonistic antiproliferative activity against human HCT-116 cells assessed as combination index at 2 uM measured after 72 hrs in presence of 1.25 nM of SN-38 by CCK-8 method; format: functional
[9] = tested on: HCT-116; test: Downregulation of HSPA2 level in human HCT-116 cells at 1 uM in presence of SN-38 by KEGG enrichment analysis; format: functional, cell-based
[10] = tested on: HCT-116; test: Upregulation of ATP5PD level in human HCT-116 cells at 1 uM in presence of SN-38 by KEGG enrichment analysis; format: functional, cell-based
[11] = target: T1, Protein cereblon/Poly [ADP-ribose] polymerase 1; test: PROTAC activity at CRBN/PARP1 in human HCT-116 cells assessed as degradation of PARP1; format: cell-based
Target sequence in this assay (P09874 whole entry): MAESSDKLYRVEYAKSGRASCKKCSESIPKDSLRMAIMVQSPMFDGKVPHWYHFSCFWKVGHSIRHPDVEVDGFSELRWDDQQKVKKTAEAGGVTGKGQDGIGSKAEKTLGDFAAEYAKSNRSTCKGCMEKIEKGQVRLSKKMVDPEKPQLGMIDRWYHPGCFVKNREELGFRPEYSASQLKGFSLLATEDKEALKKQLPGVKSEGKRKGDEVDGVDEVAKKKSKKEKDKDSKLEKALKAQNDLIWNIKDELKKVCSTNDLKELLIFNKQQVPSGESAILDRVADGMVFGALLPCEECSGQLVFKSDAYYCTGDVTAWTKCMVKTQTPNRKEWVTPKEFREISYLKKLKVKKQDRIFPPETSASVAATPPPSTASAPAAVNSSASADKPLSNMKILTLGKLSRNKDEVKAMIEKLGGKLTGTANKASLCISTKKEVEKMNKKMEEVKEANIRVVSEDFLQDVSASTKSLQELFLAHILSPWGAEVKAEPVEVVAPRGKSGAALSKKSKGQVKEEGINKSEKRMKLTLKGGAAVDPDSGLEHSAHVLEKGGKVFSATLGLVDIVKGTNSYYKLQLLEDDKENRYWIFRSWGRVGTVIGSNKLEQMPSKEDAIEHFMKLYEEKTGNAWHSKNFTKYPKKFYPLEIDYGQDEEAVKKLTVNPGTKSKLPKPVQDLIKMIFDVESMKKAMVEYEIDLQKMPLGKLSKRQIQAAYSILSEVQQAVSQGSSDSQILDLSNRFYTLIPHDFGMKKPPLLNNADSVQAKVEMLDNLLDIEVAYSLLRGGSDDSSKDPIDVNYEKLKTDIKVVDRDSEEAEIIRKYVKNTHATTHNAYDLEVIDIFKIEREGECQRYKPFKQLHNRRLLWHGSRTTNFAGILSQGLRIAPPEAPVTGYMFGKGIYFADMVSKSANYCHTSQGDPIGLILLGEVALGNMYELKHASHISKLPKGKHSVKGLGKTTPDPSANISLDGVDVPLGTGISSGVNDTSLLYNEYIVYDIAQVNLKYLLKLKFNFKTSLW
Target sequence in this assay (Q96SW2 whole entry): as the sequence (Q96SW2 whole entry partner) above

[12] = tested on: HCT-116; test: Antagonistic antiproliferative activity against human HCT-116 cells assessed as combination index at 1 uM measured after 72 hrs in presence of 0.625 nM of SN-38 by CCK-8 method; format: functional
[13] = tested on: HCT-116; test: Synergistic antiproliferative activity against human HCT-116 cells assessed as combination index at 4 uM measured after 72 hrs in presence of 0.625 nM of SN-38 by CCK-8 method; format: functional
[14] = tested on: HCT-116; test: Downregulation of […] level in human HCT-116 cells at 1 uM in presence of SN-38 by Western blot analysis; format: functional, cell-based
[15] = Potency index, ratio of SK-575 IC50 to test compound IC50 for cytotoxicity against human LoVo cells assessed as inhibition of cell growth measured after 72 hrs by CCK-8 method; format: functional
[16] = tested on: HCT-116; test: Synergistic antiproliferative activity against human HCT-116 cells assessed as combination index at 4 uM measured after 72 hrs in presence of 1.25 nM of SN-38 by CCK-8 method; format: functional
[17] = tested on: HCT-116; test: Synergistic antiproliferative activity against human HCT-116 cells assessed as combination index at 1 uM measured after 72 hrs in presence of 2.5 nM of SN-38 by CCK-8 method; format: functional
[18] = tested on: HCT-116; test: Synergistic antiproliferative activity against human HCT-116 cells assessed as combination index at 0.5 uM measured after 72 hrs in presence of 5 nM of SN-38 by CCK-8 method; format: functional
[19] = tested on: HCT-116; test: Synergistic antiproliferative activity against human HCT-116 cells assessed as combination index at 2 uM measured after 72 hrs in presence of 5 nM of SN-38 by CCK-8 method; format: functional
[20] = tested on: HCT-116; test: Synergistic antiproliferative activity against human HCT-116 cells assessed as combination index at 0.5 uM measured after 72 hrs in presence of 0.625 nM of SN-38 by CCK-8 method; format: functional
[21] = tested on: HCT-116; test: Induction of apoptosis in human HCT-116 cells assessed as necrotic cells at 1 uM measured after 72 hrs by annexin V/FITC and PI staining based flow cytometry analysis (reference value: 0.16%); format: functional
[22] = tested on: HCT-116; test: Synergistic antiproliferative activity against human HCT-116 cells assessed as combination index at 0.5 uM measured after 72 hrs in presence of 1.25 nM of SN-38 by CCK-8 method; format: functional
[23] = Cytotoxicity against human BEAS-2B cells assessed as inhibition of cell growth measured after 72 hrs by CCK-8 method; format: toxicity, cell-based
[24] = target: T1, Protein cereblon/Poly [ADP-ribose] polymerase 1; test: PROTAC activity at CRBN/PARP1 in human HCT-116 cells assessed as maximum degradation of PARP1 relative to control; format: cell-based
Target sequence in this assay (P09874 2-1014 limits assumed): as the sequence (P09874 2-1014 limits assumed) above
Target sequence in this assay (Q96SW2 whole entry partner): as the sequence (Q96SW2 whole entry partner) above

[25] = tested on: HCT-116; test: Effect on BRCA level in human HCT-116 cells at 1 uM in presence of SN-38 by Western blot analysis; format: functional, cell-based

Q: Which Emax [1] does the source give for `NC(=O)c1cccc2cn(-c3ccc([C@@H]4CCCN(CCC5CCN(CCC6CCN(CC7CCN(c8ccc9c(c8)C(=O)N(C8CCC(=O)NC8=O)C9=O)CC7)CC6)CC5)C4)cc3)nc12` (stereo not given in full) here?
A: 96.5%

Q: And the CI [2]?
A: 0.545

Q: What about the Activity [3] of the same compound?
A: 19.7%

Q: And the “Ratio IC50” value [4]?
A: <6

Q: And the viability at 1 µM [5]?
A: 83.6%

Q: And the CI [6]?
A: 0.879

Q: What about the Activity [7] of the same compound?
A: inactive

Q: And the CI [8]?
A: 1.092

Q: What about the Activity [9] of the same compound?
A: Active

Q: What about the Activity [10] of the same compound?
A: Active

Q: What about the DC50 [11] of the same compound?
A: 0.03 µM

Q: What about the CI [12] of the same compound?
A: 1.003

Q: And the CI [13]?
A: 0.567

Q: And the Activity [14]?
A: Active

Q: And the “Ratio IC50” value [15]?
A: <3.5

Q: What about the CI [16] of the same compound?
A: 0.574

Q: What about the CI [17] of the same compound?
A: 0.823

Q: And the CI [18]?
A: 0.756

Q: What about the CI [19] of the same compound?
A: 0.752

Q: What about the CI [20] of the same compound?
A: 0.967

Q: What about the Activity [21] of the same compound?
A: 2.01%

Q: And the CI [22]?
A: 0.932

Q: What about the IC50 at 72 h [23] of the same compound?
A: 8.29 µM

Q: And the Emax [24]?
A: 86.2%

Q: And the Activity [25]?
A: inactive
